Results taken from patent US7534742B2, “Isoprenoid biosynthesis” (priority 1999, dated 2009).

Biological target: T1, YgbP (Escherichia coli, UniProt Q46893)
T1 construct: made in house; host or cells: E. coli XL1-Blue, plasmid pNCOygbP (vector pNCO113)
Assay: Screening of 4-diphosphocytidyl-2C-methyl-D-erythritol synthase by spectrophotometric method (coupled pyrophosphate/NADP+ assay, 340 nm)
Assay type: biochemical, E. coli
Details: 37° C.
Protocol: Recombinant 4-diphosphocytidyl-2C-methyl-D-erythritol synthase is tested by a spectrophotometric assay at 340 nm, in which the inorganic pyrophosphate formed from 2-C-methyl-D-erythritol 4-phosphate and CTP is used in a cascade of downstream reactions leading to the reduction of NADP^+. Reactions mixtures contained 50 mM Tris hydrochloride pH 8.0, 200 μM 2C-methyl-D-erythritol 4-phosphate, 200 μM CTP, 5 mM MgCl2, 1 mM DTT, 1 μM glucose 1,6-biphosphate, 500 μM UDP-Glucose, 174 μM NADP^+, 0.125 U of UDP-glucose pyrophosphorylase, 0.16 U of phosphoglucomutase, and 1 U of glucose 6-phosphate deydrogenase, various concentrations of D-erythritol 4-phosphate respectively D-ribitol 5-phosphate as shown in Table 4 and 10 μl of enzyme in a total volume of 1 ml. One unit of enzyme activity is defined as the amount of enzyme catalyzing the conversion of 1 μmol of substrate per min at 37° C.

[1] = test compound concentration 0.2 mM
[2] = test compound concentration 1.6 mM
[3] = test compound concentration 0.4 mM
[4] = test compound concentration 0.8 mM
[5] = test compound concentration 3.2 mM

T1 sequence (Q46893 2-236): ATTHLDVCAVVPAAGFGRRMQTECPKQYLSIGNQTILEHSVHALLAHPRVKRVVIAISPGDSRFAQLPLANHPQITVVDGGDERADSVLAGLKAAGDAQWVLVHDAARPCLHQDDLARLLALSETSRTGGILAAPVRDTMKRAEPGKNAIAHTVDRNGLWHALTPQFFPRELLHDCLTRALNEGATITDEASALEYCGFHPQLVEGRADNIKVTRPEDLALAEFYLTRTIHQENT

Row | Structure (SMILES) | specific activity [1] [µmol/min/mg] | specific activity (% of activity at 0 mM test compound) [1] [%] | specific activity [2] [µmol/min/mg] | specific activity (% of activity at 0 mM test compound) [2] [%] | specific activity [3] [µmol/min/mg] | specific activity (% of activity at 0 mM test compound) [3] [%] | specific activity [4] [µmol/min/mg] | specific activity (% of activity at 0 mM test compound) [4] [%] | specific activity [5] | specific activity (% of activity at 0 mM test compound) [5]
1 | O=P(O)(O)OC[C@@H](O)[C@@H](O)[C@@H](O)CO [D-ribitol 5-phosphate] | 16.5 | 102 | 16.9 | 105 | – | – | – | – | – | –
2 | O=P(O)(O)OC[C@@H](O)[C@@H](O)CO [D-erythritol 4-phosphate] | 15.9 | 92 | 5.9 | 34 | 15.9 | 92 | 12.9 | 75 | 0 (0%) μmol min^−1 mg^−1 | 0 (0%)
